This note sets out measurements from patent US10722466B2, “Liposomal formulation for use in the treatment of cancer” (LES LABORATOIRES SERVIER, priority 2016, dated 2020).

Series [1] in a line: In vitro release assay: release of Compound A from SUV to acceptor multilamellar vesicles (MLVs). The series is classed as physicochemical. The source says: The aim of this experiment was to investigate the release rate of Compound A from small unilamellar vesicles (SUV; used here as a drug carrier system, see Example 3A) to large multilamellar vesicles (MLVs) consisting of egg phospholipids, and used as a lipophilic acceptor for drug released (see Shabbits J. A., Chiu G. N. and Mayer L. D. “Development of an in vitro drug release assay that accurately predicts in vivo drug retention for liposome-based delivery systems” Journal of Controlled Release 2002, 84(3), 161-170).
Multilamellar vesicles were prepared by using the Film-Hydration method. In short, egg phospholipids (Lipoid E 80 S) were weighed out and completely dissolved in organic solvent (EtOH/DCM at 4:1 v/v) to assure a homogenous mixture of all components.
Next, the organic solvent was removed using rotary evaporation (first step: 200 mbar, 50° C., 2 hours; second step: 30 mbar, 50° C., 45 minutes) to yield a homogenous lipid film. To assure complete removal of the organic solvent, the flask was flushed with nitrogen. Next, the film was rehydrated using phosphate buffered saline (PBS, pH 7.4) yielding MLVs and upon complete rehydration the MLVs were exposed to sonication for 15 minutes.
To have the MLVs resuspended in the same buffer system as the SUVs, the suspension was centrifuged for 10 minutes at 14,000 g, the supernatant (PBS) was removed, and replaced by sucrose histidine buffer. Lastly, the mixture was vortexed thoroughly to assure complete redispersion of the MLVs in the new medium before starting the release experiment.
SUVs (donor) were mixed with MLVs (acceptor) in a 25 ml Erlenmeyer flask with a stopper under stirring (500 rpm) at various ratios (1:40, 1:100, 1:200, 1:500; SUV:MLV v/v). 1 ml samples were taken at different time points and immediately centrifuged (14′000 rpm, 10 minutes) to separate the MLVs from SUVs for further processing. FIG. 3 herein is a schematic depicting the principle of the MLV-based release assay.
Next, the MLV portion was removed via suction and 50 μl of the SUV portion were mixed with 450 μl of ACN:H2O for HPLC sample preparation. The sample was then centrifuged (14′000 rpm, 10 minutes), the supernatant was filtered using a 0.22 μm filter and injected into the HPLC for analysis.
A high performance liquid chromatography (HPLC) system with UV detection including the following equipment settings and solvent systems were employed:
Compound A release was measured using MLVs as the acceptor compartment. Here, Compound A-loaded SUVs (7.5 mg/ml) were added to these MLVs at different ratios (v/v).
Note: For all MLV release experiments, the maximum concentration (maxC=100%) was obtained by diluting the 7.5 mg/ml loaded SUVs 1 to 40, 1 to 100, 1 to 200, or 1 to 500 (v/v) in Sucrose Histidine buffer instead of MLVs.

Series [2] in a line: Aqueous solubility of Compound A. It is filed as physicochemical. The settings on record: all pHs, including physiologically relevant pHs.

Take `COc1ccccc1-c1nccc(COc2ccccc2CC(Oc2ncnc3sc(-c4ccc(F)cc4)c(-c4ccc(OCCN5CCN(C)CC5)c(Cl)c4C)c23)C(=O)O)n1` [Compound A, (2R)-2-{[(5Sa)-5-{3-chloro-2-methyl-4-[2-(4-methylpiperazin-1-yl)ethoxy]phenyl}-6-(4-fluorophenyl)thieno[2,3-d]pyrimidin-4-yl]oxy}-3-(2-{[2-(2-methoxyphenyl)pyrimidin-4-yl]methoxy}phenyl)propanoic acid]: the “Initial amount of Compound A still detectable in the SUV portion” value in series [1] (SUV:MLV 1 to 40 (v/v), after 2 minutes, 7.5 mg/ml loaded SUVs) is listed as “about 44%”. Also, in series [1] (SUV:MLV 1 to 40 (v/v), t=2 minutes), the “Compound A released or transferred to the acceptor MLV” value is listed as approximately 60%. Besides, the “Compound A released to the acceptor MLV” value in series [1] (SUV:MLV 1 to 100 (v/v), t=2 minutes) is on record as approximately 70%; in series [1] (SUV:MLV 1 to 200 (v/v), t=2 minutes), approximately 80%; in series [1] (SUV:MLV 1 to 500 (v/v), t=2 minutes), approximately 90%. The “Drug substance released (maximum over the ratios tested)” value in series [1] (after only 2 minutes) is “up to 90%”. Besides, the Aqueous solubility entry in series [2] was “limited aqueous solubility across all pHs”.
